The source of these data is patent US20050124021A1 (priority 2000, published 2005).

Assay [1] concerns the target T1, Rv1170 (Mycobacterium tuberculosis, UniProt P9WJN3). The class given is biochemical, M. tuberculosis.
The test system of assay [2] is M. smegmatis strain 49::H37Rv A18.
The target of assay [3] is T1, Rv1170. The class given is biochemical, M. tuberculosis. This is another data set of the same source.

T1 sequence (P9WJN3 whole entry, looked up): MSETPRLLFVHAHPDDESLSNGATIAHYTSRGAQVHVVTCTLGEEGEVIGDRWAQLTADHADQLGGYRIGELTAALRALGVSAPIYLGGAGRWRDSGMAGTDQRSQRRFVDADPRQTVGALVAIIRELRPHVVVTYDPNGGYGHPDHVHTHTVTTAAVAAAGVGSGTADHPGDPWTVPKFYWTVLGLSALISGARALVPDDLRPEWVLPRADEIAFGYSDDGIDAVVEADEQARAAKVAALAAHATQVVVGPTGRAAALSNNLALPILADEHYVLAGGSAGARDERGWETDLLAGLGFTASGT

Turning to `CC(=O)N[C@H]1C(O)O[C@H](CO)[C@@H](O)[C@@H]1O` (stereo partly drawn) [GlcNAc, N-acetylglucosamine], on Rv1170 [1], the “Activity, deacetylase reaction (analysis for amine / deacetylase product)” value is 0.087 ± 0.005 nmol min^−1 mg of protein^−1 and the “Decrease in reactivity versus GlcNAc-Ins (removal of inositol residue)” value is listed as “more than 300 fold”.

`OO` [H2O2, hydrogen peroxide]: the “Reduction of the peroxide sensitivity of mutant 49” value in assay [2] is “by a factor of two”.

In the case of `CC(=O)N[C@@H](CS)C(=O)N[C@H]1[C@@H](OC2[C@H](O)[C@H](O)C(O)[C@H](O)[C@H]2O)O[C@H](CO)[C@@H](O)[C@@H]1O` (stereo partly drawn) [MSH, 1-D-myo-inosityl-2-(N-acetylcysteinyl)amido-2-deoxy-α-D-glucopyranoside], on Rv1170 [1], the “Activity, deacetylase reaction (analysis for amine / deacetylase product)” value is recorded as <10^−4 nmol min^−1 mg of protein^−1 and the “Deacetylated by the invention deacetylase” value is “neither MSH nor MSmB is deacetylated”. Further, at Rv1170 [3], the “Activity, amidase cleavage (analysis for AcCySmB or AcCys)” value is on record as 0.002 ± 0.001 nmol min^−1 mg of protein^−1.
